Results as given in publication PMC3161034 (BMC Cancer, 2011).
Read-outs that look alike come from different tables or passages of the source. Marks after values point to notes of the source that are not given here.

Tests used:
[1] = test system: patients with solid tumors; test: Adverse events graded by CTCAE version 3.0, relatedness by investigator; assay type: in vivo, human
Protocol: Cohort enrollment could be expanded to ensure that at least 6 evaluable patients were enrolled or in the event of unresolved safety, pharmacokinetic, or other concerns. The overall sample size could be further increased if additional dose cohorts were considered justified based on the results from the dose-escalation portion of the study. For continuous endpoints, the mean, standard error or standard deviation (SD); median; 25th and 75th percentiles; and minimum and maximum were calculated. For discrete data, the frequency and percent distributions were calculated. No formal comparisons between cohorts were performed. The data were analyzed using SAS software version 8.2 (SAS Institute, Cary, NC). […] The safety analysis set included all patients who received at least 1 dose of study therapy.

[2] = Motesanib plasma pharmacokinetics (LC-MS/MS, noncompartmental); set-up: species or system human; settings: in vivo; for half-life / Tmax / AUC(0-t) / concentration at 24 h / Cmax: human; for AUC(0-t) / concentration at 24 h / Cmax: week 3; for AUC(0-t): read-out: AUC0–24, median; for concentration at 24 h: read-out: C24, median; for Cmax: read-out: Cmax, median
Protocol: Plasma concentrations of motesanib were analyzed using a validated liquid chromatography/tandem mass spectrometry (LC-MS/MS) method with a lower limit of quantitation (LLOQ) of 0.2 ng/mL (Cedra Corp., Austin, TX).
Pharmacokinetic parameter estimates were calculated according to standard noncompartmental methods using WinNonlin software (version 5.1.1; Pharsight Corporation, Mountain View, CA) and summarized by dose level. […] For the BID cohort, AUC0—24 values for motesanib were determined by 2 × AUC0—12. The terminal elimination rate constant (λZ) was determined by linear regression of the natural logarithms of plasma concentrations versus time during the terminal phase; the corresponding t1/2 was calculated.

[3] = motesanib 50 mg QD + gemcitabine + erlotinib 100 mg QD, n = 7
[4] = motesanib 75 mg BID + gemcitabine + erlotinib 100 mg QD, n = 9
[5] = motesanib 100 mg QD + erlotinib 150 mg QD, n = 7
[6] = motesanib 100 mg QD + gemcitabine + erlotinib 100 mg QD, n = 8
[7] = 125 mg QD motesanib + 100 mg QD erlotinib + gemcitabine
[8] = 125 mg QD motesanib + 150 mg QD erlotinib

For `CC1(C)CNc2cc(NC(=O)c3cccnc3NCc3ccncc3)ccc21` [motesanib], which “Patients with grade ≥ 3 motesanib-related adverse events” value ([1]; all motesanib cohorts) is on record?
The value was “Twenty-three”.

What about the “Grade 5 motesanib-related adverse events” value ([1]; human, in vivo) of the same compound?
The value was “No grade 5 motesanib-related adverse events occurred”.

And the Motesanib-related diarrhea ([1]; human, in vivo)?
The Motesanib-related diarrhea was 19 n.

And the Motesanib-related fatigue ([1]; human, in vivo)?
Its Motesanib-related fatigue is 12 n.

And the Motesanib-related nausea ([1]; human, in vivo)?
The Motesanib-related nausea was 18 n.

What about the Motesanib-related vomiting ([1]; human, in vivo) of the same compound?
Its Motesanib-related vomiting is 13 n.

What about the “Patients discontinuing treatment with the drug because of adverse events” value ([1]; human, in vivo) of the same compound?
The value was 9 n.

And the “Serious motesanib-related deep vein thrombosis” value ([1]; human, in vivo)?
The value was 2 n.

And the Serious motesanib-related diarrhea ([1]; human, in vivo)?
The Serious motesanib-related diarrhea was 2 n.

What about the Serious motesanib-related nausea ([1]; human, in vivo) of the same compound?
Its Serious motesanib-related nausea is 5 n.

And the “Serious motesanib-related pulmonary embolism” value ([1]; human, in vivo)?
Its value is 2 n.

What about the “Serious motesanib-related tumor necrosis” value ([1]; human, in vivo) of the same compound?
The value was 2 n.

And the Serious motesanib-related vomiting ([1]; human, in vivo)?
The Serious motesanib-related vomiting was 5 n.

And the “Abnormal liver function test, grade 3 (motesanib-related)” value (“Abnormal liver function test” below) [1, 3]?
Its value is 0 n.

And the “Adverse events of grade 3, n (motesanib-related)” value (“Adverse events of grade 3, n” below) [1, 3]?
Its value is 0 n.

And the “Adverse events of grade 4, n (Pulmonary)” value [1, 3]?
Its value is 1 n.

And the “Any adverse event, n (motesanib-related)” value [1, 3]?
Its value is 3 n.

What about the “Cardiac toxicity (all grade 3)” value [1, 3] of the same compound?
Its value is 0 n.

And the “Deep vein thrombosis, grade 3 (motesanib-related)” value [1, 3]?
Its value is 0 n.

And the “Diarrhea, grade 3 (motesanib-related)” value [1, 3]?
The value was 0 n.

And the “Fatigue, grade 3 (motesanib-related)” value [1, 3]?
Its value is 0 n.

What about the “Febrile neutropenia, grade 4 (motesanib-related)” value (shortened to “Febrile neutropenia”) [1, 3] of the same compound?
The value was 1 n.

And the Gallbladder toxicity [1, 3]?
Its Gallbladder toxicity is 0 n.

What about the “Gallbladder toxicity, Grade 3” value [1, 3] of the same compound?
Its value is 0 n.

What about the Hemorrhagic events [1, 3] of the same compound?
The Hemorrhagic events was 0 n.

And the “Hemorrhagic events, Grade 3” value [1, 3]?
The value was 0 n.

What about the “Hypertension, highest (worst) grade: Grade 3” value (“Hypertension, highest” for short) [1, 3] of the same compound?
Its value is 0 n.

And the “Nausea, grade 3 (motesanib-related)” value [1, 3]?
Its value is 0 n.

What about the “Neutropenia, grade 3 (motesanib-related)” value [1, 3] of the same compound?
The value was 0 n.

And the “Neutropenia, grade 4 (motesanib-related)” value [1, 3]?
The value was 0 n.

What about the “Pulmonary embolism, grade 4 (motesanib-related)” value [1, 3] of the same compound?
The value was 0 n.

And the “Thrombophlebitis (all grade 3)” value [1, 3]?
Its value is 0 n.

And the “Tumor necrosis, grade 3 (motesanib-related)” value [1, 3]?
Its value is 0 n.

What about the “Vomiting, grade 3 (motesanib-related)” value [1, 3] of the same compound?
Its value is 0 n.

And the “Abnormal liver function test” value [1, 4]?
The value was 0 n.

What about the “Adverse events of grade 3, n” value [1, 4] of the same compound?
The value was 3 n.

What about the “Adverse events of grade 4, n (Pulmonary)” value [1, 4] of the same compound?
Its value is 1 n.

What about the “Any adverse event, n (motesanib-related)” value [1, 4] of the same compound?
Its value is 7 n.

And the “Cardiac toxicity (all grade 3)” value [1, 4]?
Its value is 0 n.

And the “Deep vein thrombosis, grade 3 (motesanib-related)” value [1, 4]?
Its value is 0 n.

And the “Diarrhea, grade 3 (motesanib-related)” value [1, 4]?
The value was 0 n.

What about the “Fatigue, grade 3 (motesanib-related)” value [1, 4] of the same compound?
Its value is 0 n.

What about the “Febrile neutropenia” value [1, 4] of the same compound?
Its value is 0 n.

And the Gallbladder toxicity [1, 4]?
The Gallbladder toxicity was 0 n.

And the “Gallbladder toxicity, Grade 3” value [1, 4]?
Its value is 0 n.

And the Hemorrhagic events [1, 4]?
Its Hemorrhagic events is 0 n.

What about the “Hemorrhagic events, Grade 3” value [1, 4] of the same compound?
Its value is 0 n.

And the “Hypertension, highest” value [1, 4]?
The value was 0 n.

What about the “Nausea, grade 3 (motesanib-related)” value [1, 4] of the same compound?
The value was 1 n.

What about the “Neutropenia, grade 3 (motesanib-related)” value [1, 4] of the same compound?
The value was 0 n.

What about the “Neutropenia, grade 4 (motesanib-related)” value [1, 4] of the same compound?
The value was 1 n.

What about the “Pulmonary embolism, grade 4 (motesanib-related)” value [1, 4] of the same compound?
The value was 0 n.

What about the “Thrombophlebitis (all grade 3)” value [1, 4] of the same compound?
The value was 0 n.

What about the “Tumor necrosis, grade 3 (motesanib-related)” value [1, 4] of the same compound?
Its value is 1 n.

And the “Vomiting, grade 3 (motesanib-related)” value [1, 4]?
The value was 0 n.

And the “Abnormal liver function test” value [1, 5]?
Its value is 0 n.

And the “Adverse events of grade 3, n” value [1, 5]?
The value was 3 n.

What about the “Adverse events of grade 4, n (Pulmonary)” value [1, 5] of the same compound?
Its value is 0 n.

What about the “Any adverse event, n (motesanib-related)” value [1, 5] of the same compound?
Its value is 7 n.

What about the “Cardiac toxicity (all grade 3)” value [1, 5] of the same compound?
Its value is 0 n.

What about the “Deep vein thrombosis, grade 3 (motesanib-related)” value [1, 5] of the same compound?
The value was 0 n.

And the “Diarrhea, grade 3 (motesanib-related)” value [1, 5]?
Its value is 2 n.

And the “Fatigue, grade 3 (motesanib-related)” value [1, 5]?
The value was 0 n.

And the “Febrile neutropenia” value [1, 5]?
Its value is 0 n.

And the “Gallbladder toxicity, Grade 3” value [1, 5]?
The value was 0 n.

And the “Hemorrhagic events, Grade 3” value [1, 5]?
Its value is 0 n.

What about the “Hypertension, highest” value [1, 5] of the same compound?
Its value is 0 n.

What about the “Nausea, grade 3 (motesanib-related)” value [1, 5] of the same compound?
The value was 0 n.

What about the “Neutropenia, grade 3 (motesanib-related)” value [1, 5] of the same compound?
Its value is 1 n.

And the “Neutropenia, grade 4 (motesanib-related)” value [1, 5]?
The value was 0 n.

What about the “Pulmonary embolism, grade 4 (motesanib-related)” value [1, 5] of the same compound?
Its value is 0 n.

What about the “Thrombophlebitis (all grade 3)” value [1, 5] of the same compound?
The value was 0 n.

And the “Tumor necrosis, grade 3 (motesanib-related)” value [1, 5]?
Its value is 1 n.

And the “Vomiting, grade 3 (motesanib-related)” value [1, 5]?
The value was 0 n.

What about the Hemorrhagic events ([1]; motesanib 100 mg QD + erlotinib 150 mg QD, n = 7, epistaxis (grade 1)) of the same compound?
Its Hemorrhagic events is 1^e n.

What about the Gallbladder toxicity ([1]; motesanib 100 mg QD + erlotinib 150 mg QD, n = 7, gallbladder enlargement (grade 2)) of the same compound?
Its Gallbladder toxicity is 1^c n.

And the “Abnormal liver function test” value [1, 6]?
Its value is 1 n.

And the “Adverse events of grade 3, n” value [1, 6]?
Its value is 3 n.

And the “Adverse events of grade 4, n (Pulmonary)” value [1, 6]?
Its value is 0 n.

And the “Any adverse event, n (motesanib-related)” value [1, 6]?
The value was 8 n.

What about the “Deep vein thrombosis, grade 3 (motesanib-related)” value [1, 6] of the same compound?
Its value is 0 n.

And the “Diarrhea, grade 3 (motesanib-related)” value [1, 6]?
Its value is 1 n.

And the “Fatigue, grade 3 (motesanib-related)” value [1, 6]?
Its value is 1 n.

And the “Febrile neutropenia” value [1, 6]?
The value was 0 n.

What about the Gallbladder toxicity [1, 6] of the same compound?
The Gallbladder toxicity was 0 n.

And the “Gallbladder toxicity, Grade 3” value [1, 6]?
The value was 0 n.

What about the Hemorrhagic events [1, 6] of the same compound?
The Hemorrhagic events was 0 n.

What about the “Hemorrhagic events, Grade 3” value [1, 6] of the same compound?
The value was 0 n.

And the “Hypertension, highest” value [1, 6]?
The value was 0 n.

And the “Nausea, grade 3 (motesanib-related)” value [1, 6]?
The value was 0 n.

What about the “Neutropenia, grade 3 (motesanib-related)” value [1, 6] of the same compound?
Its value is 1 n.

What about the “Neutropenia, grade 4 (motesanib-related)” value [1, 6] of the same compound?
Its value is 0 n.

What about the “Pulmonary embolism, grade 4 (motesanib-related)” value [1, 6] of the same compound?
The value was 0 n.

What about the “Thrombophlebitis (all grade 3)” value [1, 6] of the same compound?
Its value is 0 n.

What about the “Tumor necrosis, grade 3 (motesanib-related)” value [1, 6] of the same compound?
The value was 0 n.

What about the “Vomiting, grade 3 (motesanib-related)” value [1, 6] of the same compound?
Its value is 1 n.

And the “Cardiac toxicity (all grade 3)” value ([1]; motesanib 100 mg QD + gemcitabine + erlotinib 100 mg QD, n = 8, congestive heart failure and pulmonary edema)?
The value was 1^f n.

And the half-life ([2]; 100 mg, read-out: Mean estimated terminal elimination half-life (t1/2, z))?
Its half-life is 4.8 to 8.6 h.

And the Tmax ([2]; 100 mg, read-out: Overall median tmax)?
Its Tmax is 0.6 to 2 h.

What about the Tmax ([2]; 150 mg) of the same compound?
The Tmax was 2 h.

And the half-life ([2]; 150 mg)?
The half-life was 6 to 7.7 h.

What about the AUC(0-t) [2, 7] of the same compound?
Its AUC(0-t) is 4.77 µg·h/mL.

What about the concentration at 24 h [2, 7] of the same compound?
Its concentration at 24 h is 0.037 µg/mL.

And the Cmax [2, 7]?
Its Cmax is 0.655 µg/mL.

And the AUC(0-t) [2, 8]?
Its AUC(0-t) is 3.12 µg·h/mL.

And the concentration at 24 h [2, 8]?
The concentration at 24 h was 0.0447 µg/mL.

What about the Cmax [2, 8] of the same compound?
The Cmax was 0.443 µg/mL.

And the “Effect of combination on motesanib pharmacokinetics” value [2]?
Its value is “not markedly affected”.
